{"source": "patent US20240043404A1", "about": "(AbbVie Inc., priority 2009, published 2024)", "data": [{"test_system": "RS4;11 cells", "assay": "RS4;11 cell viability assay (CellTiter Glo);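 note: acute lymphoblastic leukemia line RS4,11, EC50 derived from percentage of viable cells after treatment relative to untreated controls, cell killing taken as a measure of Bcl-2 inhibition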", "assay_type": "cell-based, human", "details": "Homo sapiens, RS4-11, 48 h, 50,000 cells per well, 10% human serum, 48 hours; read-out: RS4; 11 EC50 Values", "units": {"EC50": "nM"}, "method": "The acute lymphoblastic leukemia (ALL) cell line RS4;11 was used as the primary human cell line to assess the cellular activity of Bcl-2 selective agents in vitro and their efficacy in vivo.\nCell cytotoxicity EC50 values were assessed using CellTiter Glo (Promega) according to the manufacturer's recommendations. The EC50 values were determined as a percentage of viable cells following treatment compared to the untreated control cells.", "values": [{"molecule": "CC1(C)CCC(CN2CCN(c3ccc(C(=O)NS(=O)(=O)c4ccc(NCC5CN(C(CF)CF)CCO5)c([N+](=O)[O-])c4)c(Oc4cnc5[nH]ccc5c4)c3)CC2)=C(c2ccc(Cl)cc2)C1", "note": "(stereo not drawn) [Example 252, 4-(4-{[2-(4-chlorophenyl)-4,4-dimethylcyclohex-1-en-1-yl]methyl}piperazin-1-yl)-N-{[4-({[4-(1,3-difluoropropan-2-yl)morpholin-2-yl]methyl}amino)-3-nitrophenyl]sulfonyl}-2-(1H-pyrrolo[2,3-b]pyridin-5-yloxy)benzamide]", "EC50": 3.47}, {"molecule": "CC1(C)CCC(CN2CCN(c3ccc(C(=O)NS(=O)(=O)c4cnc(OCC5CCN(CC#N)CC5)c(Cl)c4)c(Oc4cnc5[nH]ccc5c4)c3)CC2)=C(c2ccc(Cl)cc2)C1", "note": "[Example 253, N-[(5-chloro-6-{[1-(cyanomethyl)piperidin-4-yl]methoxy}pyridin-3-yl)sulfonyl]-4-(4-{[2-(4-chlorophenyl)-4,4-dimethylcyclohex-1-en-1-yl]methyl}piperazin-1-yl)-2-(1H-pyrrolo[2,3-b]pyridin-5-yloxy)benzamide]", "EC50": 49.6}, {"molecule": "COCCOCCN1CC[C@@H](Nc2ccc(S(=O)(=O)NC(=O)c3ccc(N4CCN(CC5=C(c6ccc(Cl)cc6)CC(C)(C)CC5)CC4)cc3Oc3cnc4[nH]ccc4c3)cc2[N+](=O)[O-])C1", "note": "[Example 254, 4-(4-{[2-(4-chlorophenyl)-4,4-dimethylcyclohex-1-en-1-yl]methyl}piperazin-1-yl)-N-{[4-({(3R)-1-[2-(2-methoxyethoxy)ethyl]pyrrolidin-3-yl}amino)-3-nitrophenyl]sulfonyl}-2-(1H-pyrrolo[2,3-b]pyridin-5-yloxy)benzamide]", "EC50": 19.9}, {"molecule": "CN(C)CC(=O)N1CC[C@@H](Nc2ccc(S(=O)(=O)NC(=O)c3ccc(N4CCN(CC5=C(c6ccc(Cl)cc6)CC(C)(C)CC5)CC4)cc3Oc3cnc4[nH]ccc4c3)cc2[N+](=O)[O-])C1", "note": "[Example 255, 4-(4-{[2-(4-chlorophenyl)-4,4-dimethylcyclohex-1-en-1-yl]methyl}piperazin-1-yl)-N-[(4-{[(3R)-1-(N,N-dimethylglycyl)pyrrolidin-3-yl]amino}-3-nitrophenyl)sulfonyl]-2-(1H-pyrrolo[2,3-b]pyridin-5-yloxy)benzamide]", "EC50": 9}, {"molecule": "CC1(C)CCC(CN2CCN(c3ccc(C(=O)NS(=O)(=O)c4ccc(NC5CN(C6COC6)C5)c([N+](=O)[O-])c4)c(Oc4cnc5[nH]ccc5c4)c3)CC2)=C(c2ccc(Cl)cc2)C1", "note": "[Example 256, 4-(4-{[2-(4-chlorophenyl)-4,4-dimethylcyclohex-1-en-1-yl]methyl}piperazin-1-yl)-N-[(3-nitro-4-{[1-(oxetan-3-yl)azetidin-3-yl]amino}phenyl)sulfonyl]-2-(1H-pyrrolo[2,3-b]pyridin-5-yloxy)benzamide]", "EC50": 18}, {"molecule": "CC1(C)CCC(CN2CCN(c3ccc(C(=O)NS(=O)(=O)c4cnc(OCC5(F)CCN(CC#N)CC5)c(Cl)c4)c(Oc4cnc5[nH]ccc5c4)c3)CC2)=C(c2ccc(Cl)cc2)C1", "note": "[Example 257, N-[(5-chloro-6-{[1-(cyanomethyl)-4-fluoropiperidin-4-yl]methoxy}pyridin-3-yl)sulfonyl]-4-(4-{[2-(4-chlorophenyl)-4,4-dimethylcyclohex-1-en-1-yl]methyl}piperazin-1-yl)-2-(1H-pyrrolo[2,3-b]pyridin-5-yloxy)benzamide]", "EC50": 26}, {"molecule": "CN(C)CC(=O)N1CCO[C@H](CNc2ccc(S(=O)(=O)NC(=O)c3ccc(N4CCN(CC5=C(c6ccc(Cl)cc6)CC(C)(C)CC5)CC4)cc3Oc3cnc4[nH]ccc4c3)cc2[N+](=O)[O-])C1", "note": "[Example 258, 4-(4-{[2-(4-chlorophenyl)-4,4-dimethylcyclohex-1-en-1-yl]methyl}piperazin-1-yl)-N-{[4-({[(2R)-4-(N,N-dimethylglycyl)morpholin-2-yl]methyl}amino)-3-nitrophenyl]sulfonyl}-2-(1H-pyrrolo[2,3-b]pyridin-5-yloxy)benzamide]", "EC50": 0.553}, {"molecule": "CN(C)CC(=O)N1CCO[C@@H](CNc2ccc(S(=O)(=O)NC(=O)c3ccc(N4CCN(CC5=C(c6ccc(Cl)cc6)CC(C)(C)CC5)CC4)cc3Oc3cnc4[nH]ccc4c3)cc2[N+](=O)[O-])C1", "note": "[Example 259, 4-(4-{[2-(4-chlorophenyl)-4,4-dimethylcyclohex-1-en-1-yl]methyl}piperazin-1-yl)-N-{[4-({[(2S)-4-(N,N-dimethylglycyl)morpholin-2-yl]methyl}amino)-3-nitrophenyl]sulfonyl}-2-(1H-pyrrolo[2,3-b]pyridin-5-yloxy)benzamide]", "EC50": 0.388}, {"molecule": "CN(C)CC(=O)N1CCC(COc2ncc(S(=O)(=O)NC(=O)c3ccc(N4CCN(CC5=C(c6ccc(Cl)cc6)CC(C)(C)CC5)CC4)cc3Oc3cnc4[nH]ccc4c3)cc2Cl)CC1", "note": "[Example 260, N-[(5-chloro-6-{[1-(N,N-dimethylglycyl)piperidin-4-yl]methoxy}pyridin-3-yl)sulfonyl]-4-(4-{[2-(4-chlorophenyl)-4,4-dimethylcyclohex-1-en-1-yl]methyl}piperazin-1-yl)-2-(1H-pyrrolo[2,3-b]pyridin-5-yloxy)benzamide]", "EC50": 5.43}, {"molecule": "CC1(C)CCC(CN2CCN(c3ccc(C(=O)NS(=O)(=O)c4cnc(O[C@@H]5CCN(CC(F)F)C5)c(Cl)c4)c(Oc4cnc5[nH]ccc5c4)c3)CC2)=C(c2ccc(Cl)cc2)C1", "note": "[Example 261, N-[(5-chloro-6-{[(3R)-1-(2,2-difluoroethyl)pyrrolidin-3-yl]oxy}pyridin-3-yl)sulfonyl]-4-(4-{[2-(4-chlorophenyl)-4,4-dimethylcyclohex-1-en-1-yl]methyl}piperazin-1-yl)-2-(1H-pyrrolo[2,3-b]pyridin-5-yloxy)benzamide]", "EC50": 184}, {"molecule": "CC1(C)CCC(CN2CCN(c3ccc(C(=O)NS(=O)(=O)c4ccc(N[C@@H]5CCN(CC#N)C5)c([N+](=O)[O-])c4)c(Oc4cnc5[nH]ccc5c4)c3)CC2)=C(c2ccc(Cl)cc2)C1", "note": "[Example 262, 4-(4-{[2-(4-chlorophenyl)-4,4-dimethylcyclohex-1-en-1-yl]methyl}piperazin-1-yl)-N-[(4-{[(3R)-1-(cyanomethyl)pyrrolidin-3-yl]amino}-3-nitrophenyl)sulfonyl]-2-(1H-pyrrolo[2,3-b]pyridin-5-yloxy)benzamide]", "EC50": 16.3}, {"molecule": "COC1(Cc2ccccc2-c2ccc(Cl)cc2)CCN(c2ccc(C(=O)NS(=O)(=O)c3cnc(OCC4(F)CCOCC4)c(Cl)c3)c(Oc3cnc4[nH]ccc4c3)c2)CC1", "note": "[Example 263, 4-{4-[(4′-chlorobiphenyl-2-yl)methyl]-4-methoxypiperidin-1-yl}-N-({5-chloro-6-[(4-fluorotetrahydro-2H-pyran-4-yl)methoxy]pyridin-3-yl}sulfonyl)-2-(1H-pyrrolo[2,3-b]pyridin-5-yloxy)benzamide]", "EC50": "> 1000"}, {"molecule": "COC1(Cc2ccccc2-c2ccc(Cl)cc2)CCN(c2ccc(C(=O)NS(=O)(=O)c3ccc(NCC4CCOCC4)c([N+](=O)[O-])c3)c(Oc3cnc4[nH]ccc4c3)c2)CC1", "note": "[Example 264, 4-{4-[(4′-chlorobiphenyl-2-yl)methyl]-4-methoxypiperidin-1-yl}-N-({3-nitro-4-[(tetrahydro-2H-pyran-4-ylmethyl)amino]phenyl}sulfonyl)-2-(1H-pyrrolo[2,3-b]pyridin-5-yloxy)benzamide]", "EC50": 689}, {"molecule": "O=C(NS(=O)(=O)c1ccc(NCC2CCOCC2)c([N+](=O)[O-])c1)c1ccc(N2CCN(CC3=C(c4ccc(Cl)cc4)CCC4(CCN(C(CF)CF)CC4)C3)CC2)cc1Oc1cnc2[nH]ccc2c1", "note": "[Example 265, 4-(4-{[9-(4-chlorophenyl)-3-(1,3-difluoropropan-2-yl)-3-azaspiro[5.5]undec-8-en-8-yl]methyl}piperazin-1-yl)-N-({3-nitro-4-[(tetrahydro-2H-pyran-4-ylmethyl)amino]phenyl}sulfonyl)-2-(1H-pyrrolo[2,3-b]pyridin-5-yloxy)benzamide]", "EC50": 7.17}, {"molecule": "CC(C)N1CCC2(CCC(c3ccc(Cl)cc3)=C(CN3CCN(c4ccc(C(=O)NS(=O)(=O)c5ccc(NCC6CCOCC6)c([N+](=O)[O-])c5)c(Oc5cnc6[nH]ccc6c5)c4)CC3)C2)CC1", "note": "[Example 266, 4-(4-{[9-(4-chlorophenyl)-3-isopropyl-3-azaspiro[5.5]undec-8-en-8-yl]methyl}piperazin-1-yl)-N-({3-nitro-4-[(tetrahydro-2H-pyran-4-ylmethyl)amino]phenyl}sulfonyl)-2-(1H-pyrrolo[2,3-b]pyridin-5-yloxy)benzamide]", "EC50": 7.29}, {"molecule": "O=C(NS(=O)(=O)c1cnc(OCC2CCOCC2)c(Cl)c1)c1ccc(N2CCN(CC3=C(c4ccc(Cl)cc4)CCC4(CCN(C(CF)CF)CC4)C3)CC2)cc1Oc1cnc2[nH]ccc2c1", "note": "[Example 267, 4-(4-{[9-(4-chlorophenyl)-3-(1,3-difluoropropan-2-yl)-3-azaspiro[5.5]undec-8-en-8-yl]methyl}piperazin-1-yl)-N-{[5-chloro-6-(tetrahydro-2H-pyran-4-ylmethoxy)pyridin-3-yl]sulfonyl}-2-(1H-pyrrolo[2,3-b]pyridin-5-yloxy)benzamide]", "EC50": 69.4}, {"molecule": "CC(C)N1CCC2(CCC(c3ccc(Cl)cc3)=C(CN3CCN(c4ccc(C(=O)NS(=O)(=O)c5cnc(OCC6CCOCC6)c(Cl)c5)c(Oc5cnc6[nH]ccc6c5)c4)CC3)C2)CC1", "note": "[Example 268, 4-(4-{[9-(4-chlorophenyl)-3-isopropyl-3-azaspiro[5.5]undec-8-en-8-yl]methyl}piperazin-1-yl)-N-{[5-chloro-6-(tetrahydro-2H-pyran-4-ylmethoxy)pyridin-3-yl]sulfonyl}-2-(1H-pyrrolo[2,3-b]pyridin-5-yloxy)benzamide]", "EC50": 48.8}, {"molecule": "CN1CCC(F)(COc2ncc(S(=O)(=O)NC(=O)c3ccc(N4CCN(CC5=C(c6ccc(Cl)cc6)CC(C)(C)CC5)CC4)cc3Oc3cnc4[nH]ccc4c3)cc2Cl)CC1", "note": "[Example 269, N-({5-chloro-6-[(4-fluoro-1-methylpiperidin-4-yl)methoxy]pyridin-3-yl}sulfonyl)-4-(4-{[2-(4-chlorophenyl)-4,4-dimethylcyclohex-1-en-1-yl]methyl}piperazin-1-yl)-2-(1H-pyrrolo[2,3-b]pyridin-5-yloxy)benzamide]", "EC50": 7.23}]}]}
